Measured values as given in patent publication US8633200B2, “Inhibitors of human immunodeficiency virus replication” (priority 2010, dated 2014).
Counter-ions that a name gives are not always drawn. Like-named read-outs stand apart in the source and are kept apart here.

Test system: recombinant NL-Rluc virus (NL4-3 with Renilla Luciferase gene) in MT-2 cells
Assay: Inhibition of HIV replication (NL-Rluc luciferase reporter virus, MT-2 cells)
Format: cell-based, human immunodeficiency virus (HIV)
Settings: NL43, 120 h

**Q.** Which EC50 (read-out: Activity) does the source give for Cc1nc2cc(-c3cccc(-c4cccnc4)c3)nn2c(-c2cc(F)c3c(c2C)CCCO3)c1[C@H](OC(C)(C)C)C(=O)O [Example 119, (2S)-2-(tert-Butoxy)-2-(7-(8-fluoro-5-methylchroman-6-yl)-5-methyl-2-(3-(pyridin-3-yl)phenyl)pyrazolo[1,5-a]pyrimidin-6-yl)acetic acid] here?
**A.** < 0.1 µM

**Q.** How did the EC50 (read-out: Activity) turn out when Cc1nc2cc(-c3cccc(-c4ccc5c(cnn5C)c4)c3)nn2c(-c2cc(F)c3c(c2C)CCCO3)c1[C@H](OC(C)(C)C)C(=O)O [Example 120, (2S)-2-(tert-Butoxy)-2-(7-(8-fluoro-5-methylchroman-6-yl)-5-methyl-2-(3-(1-methyl-1H-indazol-5-yl)phenyl)pyrazolo[1,5-a]pyrimidin-6-yl)acetic acid] was run?
**A.** < 0.1 µM

**Q.** And the EC50 (read-out: EC50 μM)?
**A.** 0.002 µM

**Q.** Cc1nc2cc(-c3cccc(-c4ccncc4)c3)nn2c(-c2cc(F)c3c(c2C)CCCO3)c1[C@H](OC(C)(C)C)C(=O)O [Example 121, (2S)-2-(tert-Butoxy)-2-(7-(8-fluoro-5-methylchroman-6-yl)-5-methyl-2-(3-(pyridin-4-yl)phenyl)pyrazolo[1,5-a]pyrimidin-6-yl)acetic acid, TFA salt] was tested. Which EC50 (read-out: Activity) did it give?
**A.** < 0.1 µM

**Q.** Cc1nc2cc(-c3cccc(-c4ccncc4)c3)nn2c(-c2cc(F)c3c(c2C)CCCO3)c1[C@@H](OC(C)(C)C)C(=O)O [Example 122, (2R)-2-(tert-Butoxy)-2-(7-(8-fluoro-5-methylchroman-6-yl)-5-methyl-2-(3-(pyridin-4-yl)phenyl)pyrazolo[1,5-a]pyrimidin-6-yl)acetic acid, TFA salt] was tested. Which EC50 (read-out: Activity) did it give?
**A.** > 1 µM

**Q.** Cc1nc2cc(-c3cccc(Cl)c3)nn2c(-c2cc(F)c3c(c2C)CCCO3)c1[C@H](OC(C)(C)C)C(=O)O [Example 123, (2S)-2-(tert-Butoxy)-2-(2-(3-chlorophenyl)-7-(8-fluoro-5-methylchroman-6-yl)-5-methylpyrazolo[1,5-a]pyrimidin-6-yl)acetic acid, TFA salt] was tested. Which EC50 (read-out: Activity) did it give?
**A.** < 0.1 µM

**Q.** Cc1nc2cc(-c3cccc(-c4ccc(F)cc4)c3)nn2c(-c2cc(F)c3c(c2C)CCCO3)c1[C@H](OC(C)(C)C)C(=O)O [Example 124, (2S)-2-(tert-Butoxy)-2-(7-(8-fluoro-5-methylchroman-6-yl)-2-(4′-fluoro-[1,1′-biphenyl]-3-yl)-5-methylpyrazolo[1,5-a]pyrimidin-6-yl)acetic acid, TFA salt] was tested. Which EC50 (read-out: Activity) did it give?
**A.** < 0.1 µM

**Q.** With Cc1nc2cc(-c3cccc(-c4ccccc4)c3)nn2c(-c2cc(F)c3c(c2C)CCCO3)c1[C@H](OC(C)(C)C)C(=O)O [Example 125, (2S)-2-(2-([1,1′-Biphenyl]-3-yl)-7-(8-fluoro-5-methylchroman-6-yl)-5-methylpyrazolo[1,5-a]pyrimidin-6-yl)-2-(tert-butoxy)acetic acid] as the molecule, how does the EC50 (read-out: Activity) read?
**A.** < 0.1 µM

**Q.** With Cc1ccc(-c2cccc(-c3cc4nc(C)c([C@H](OC(C)(C)C)C(=O)O)c(-c5cc(F)c6c(c5C)CCCO6)n4n3)c2)cc1 [Example 126, (2S)-2-(tert-Butoxy)-2-(7-(8-fluoro-5-methylchroman-6-yl)-2-(4′-methyl-[1,1′-biphenyl]-3-yl)-5-methylpyrazolo[1,5-a]pyrimidin-6-yl)acetic acid, TFA salt] as the molecule, how does the EC50 (read-out: Activity) read?
**A.** < 0.1 µM

**Q.** For COc1ccc(-c2cccc(-c3cc4nc(C)c([C@H](OC(C)(C)C)C(=O)O)c(-c5cc(F)c6c(c5C)CCCO6)n4n3)c2)cc1 [Example 127, (2S)-2-(tert-Butoxy)-2-(7-(8-fluoro-5-methylchroman-6-yl)-2-(4′-methoxy-[1,1′-biphenyl]-3-yl)-5-methylpyrazolo[1,5-a]pyrimidin-6-yl)acetic acid, TFA salt], which EC50 (read-out: Activity) is on record?
**A.** < 0.1 µM

**Q.** With Cc1nc2cc(-c3cccc(-c4cccc(F)c4)c3)nn2c(-c2cc(F)c3c(c2C)CCCO3)c1[C@H](OC(C)(C)C)C(=O)O [Example 128, (2S)-2-(tert-Butoxy)-2-(7-(8-fluoro-5-methylchroman-6-yl)-2-(3′-fluoro-[1,1′-biphenyl]-3-yl)-5-methylpyrazolo[1,5-a]pyrimidin-6-yl)acetic acid, TFA salt] as the molecule, how does the EC50 (read-out: Activity) read?
**A.** < 0.1 µM

**Q.** With COc1cccc(-c2cccc(-c3cc4nc(C)c([C@H](OC(C)(C)C)C(=O)O)c(-c5cc(F)c6c(c5C)CCCO6)n4n3)c2)c1 [Example 129, (2S)-2-(tert-Butoxy)-2-(7-(8-fluoro-5-methylchroman-6-yl)-2-(3′-methoxy-[1,1′-biphenyl]-3-yl)-5-methylpyrazolo[1,5-a]pyrimidin-6-yl)acetic acid, TFA salt] as the molecule, how does the EC50 (read-out: Activity) read?
**A.** < 0.1 µM

**Q.** Cc1cccc(-c2cccc(-c3cc4nc(C)c([C@H](OC(C)(C)C)C(=O)O)c(-c5cc(F)c6c(c5C)CCCO6)n4n3)c2)c1 [Example 130, (2S)-2-(tert-Butoxy)-2-(7-(8-fluoro-5-methylchroman-6-yl)-2-(3′-methyl-[1,1′-biphenyl]-3-yl)-5-methylpyrazolo[1,5-a]pyrimidin-6-yl)acetic acid, TFA salt] was tested. Which EC50 (read-out: Activity) did it give?
**A.** < 0.1 µM

**Q.** Which EC50 (read-out: Activity) does the source give for Cc1nc2cc(-c3cccc(-c4cnn(C)c4)c3)nn2c(-c2cc(F)c3c(c2C)CCCO3)c1[C@H](OC(C)(C)C)C(=O)O [Example 131, (2S)-2-(tert-Butoxy)-2-(7-(8-fluoro-5-methylchroman-6-yl)-5-methyl-2-(3-(1-methyl-1H-pyrazol-4-yl)phenyl)pyrazolo[1,5-a]pyrimidin-6-yl)acetic acid] here?
**A.** < 0.1 µM

**Q.** With Cc1nc2c(-c3cccc(Cl)c3)cnn2c(-c2cc(F)c3c(c2C)CCCO3)c1C(OC(C)(C)C)C(=O)O (stereo not shown) [Example 132] as the molecule, how does the EC50 (read-out: Activity) read?
**A.** 0.1 to 1 µM

**Q.** With Cc1nc2c(-c3cccc(Cl)c3)cnn2c(-c2ccc3c(c2)CCCO3)c1C(OC(C)(C)C)C(=O)O (stereo not shown) [Example 133, 2-tert-Butoxy-2-(3-(3-chlorophenyl)-(7-chroman-6-yl)-5-methylpyrazolo[1,5-a]pyrimidin-6-yl)acetic acid] as the molecule, how does the EC50 (read-out: Activity) read?
**A.** 0.1 to 1 µM

**Q.** Which EC50 (read-out: Activity) does the source give for Cc1ccc(-c2c(C(OC(C)(C)C)C(=O)O)c(C)nc3c(-c4cccc(Cl)c4)cnn23)c(Cl)c1 (stereo not shown) [Example 134, 2-tert-Butoxy-2-(7-(2-chloro-4-methylphenyl)-3-(3-chlorophenyl)-5-methylpyrazolo[1,5-a]pyrimidin-6-yl)acetic acid] here?
**A.** > 1 µM

**Q.** For Cc1nc2c(-c3cccc(-c4ccncc4)c3)cnn2c(-c2cc(F)c3c(c2C)CCCO3)c1C(OC(C)(C)C)C(=O)O (stereo not shown) [Example 135, 2-(tert-Butoxy)-2-(7-(8-fluoro-5-methylchroman-6-yl)-5-methyl-3-(3-(pyridin-4-yl)phenyl)pyrazolo[1,5-a]pyrimidin-6-yl)acetic acid], which EC50 (read-out: Activity) is on record?
**A.** 0.1 to 1 µM

**Q.** Which EC50 (read-out: Activity) does the source give for Cc1nc2c(-c3ccc(F)cc3)c(-c3ccccc3)nn2c(-c2cc(F)c3c(c2C)CCCO3)c1C(OC(C)(C)C)C(=O)O (stereo not shown) [Example 136, 2-(tert-Butoxy)-2-(7-(8-fluoro-5-methylchroman-6-yl)-3-(4-fluorophenyl)-5-methyl-2-phenylpyrazolo[1,5-a]pyrimidin-6-yl)acetic acid] here?
**A.** > 1 µM

**Q.** And the EC50 (read-out: EC50 μM)?
**A.** 1.6 µM

**Q.** With Cc1nc2c(-c3cc(F)c4c(c3C)CCCO4)c(-c3ccccc3)nn2c(-c2cc(F)c3c(c2C)CCCO3)c1C(OC(C)(C)C)C(=O)O (stereo not shown) [Example 137, 2-(3,7-Bis(8-fluoro-5-methylchroman-6-yl)-5-methyl-2-phenylpyrazolo[1,5-a]pyrimidin-6-yl)-2-(tert-butoxy)acetic acid] as the molecule, how does the EC50 (read-out: Activity) read?
**A.** > 1 µM

**Q.** Cc1nc2c(Br)c(-c3ccccc3)nn2c(-c2cc(F)c3c(c2C)CCCO3)c1[C@H](OC(C)(C)C)C(=O)O [Example 138, (2S)-2-(3-Bromo-7-(8-fluoro-5-methylchroman-6-yl)-5-methyl-2-phenylpyrazolo[1,5-a]pyrimidin-6-yl)-2-(tert-butoxy)acetic acid] was tested. Which EC50 (read-out: Activity) did it give?
**A.** 0.1 to 1 µM
